# pIC50: −log10 of the molar value.
# Legend:
# [1] = target: Epidermal growth factor receptor (Homo sapiens, UniProt P00533, L858R/T790M); test: Inhibition of recombinant human GST-tagged EGFR T790M/L858R mutant expressed in baculovirus expression system using Tyr 04 as substrate incubated for 1 hr by Z'-LYTE assay
# [2] = target: Epidermal growth factor receptor (Homo sapiens, UniProt P00533, L858R); test: Inhibition of recombinant human GST-tagged EGFR L858R mutant expressed in baculovirus expression system using Tyr 04 as substrate incubated for 1 hr by Z'-LYTE assay
# Sequence of Epidermal growth factor receptor (Homo sapiens, UniProt P00533, L858R) (P00533 25-1210 L858R limits assumed): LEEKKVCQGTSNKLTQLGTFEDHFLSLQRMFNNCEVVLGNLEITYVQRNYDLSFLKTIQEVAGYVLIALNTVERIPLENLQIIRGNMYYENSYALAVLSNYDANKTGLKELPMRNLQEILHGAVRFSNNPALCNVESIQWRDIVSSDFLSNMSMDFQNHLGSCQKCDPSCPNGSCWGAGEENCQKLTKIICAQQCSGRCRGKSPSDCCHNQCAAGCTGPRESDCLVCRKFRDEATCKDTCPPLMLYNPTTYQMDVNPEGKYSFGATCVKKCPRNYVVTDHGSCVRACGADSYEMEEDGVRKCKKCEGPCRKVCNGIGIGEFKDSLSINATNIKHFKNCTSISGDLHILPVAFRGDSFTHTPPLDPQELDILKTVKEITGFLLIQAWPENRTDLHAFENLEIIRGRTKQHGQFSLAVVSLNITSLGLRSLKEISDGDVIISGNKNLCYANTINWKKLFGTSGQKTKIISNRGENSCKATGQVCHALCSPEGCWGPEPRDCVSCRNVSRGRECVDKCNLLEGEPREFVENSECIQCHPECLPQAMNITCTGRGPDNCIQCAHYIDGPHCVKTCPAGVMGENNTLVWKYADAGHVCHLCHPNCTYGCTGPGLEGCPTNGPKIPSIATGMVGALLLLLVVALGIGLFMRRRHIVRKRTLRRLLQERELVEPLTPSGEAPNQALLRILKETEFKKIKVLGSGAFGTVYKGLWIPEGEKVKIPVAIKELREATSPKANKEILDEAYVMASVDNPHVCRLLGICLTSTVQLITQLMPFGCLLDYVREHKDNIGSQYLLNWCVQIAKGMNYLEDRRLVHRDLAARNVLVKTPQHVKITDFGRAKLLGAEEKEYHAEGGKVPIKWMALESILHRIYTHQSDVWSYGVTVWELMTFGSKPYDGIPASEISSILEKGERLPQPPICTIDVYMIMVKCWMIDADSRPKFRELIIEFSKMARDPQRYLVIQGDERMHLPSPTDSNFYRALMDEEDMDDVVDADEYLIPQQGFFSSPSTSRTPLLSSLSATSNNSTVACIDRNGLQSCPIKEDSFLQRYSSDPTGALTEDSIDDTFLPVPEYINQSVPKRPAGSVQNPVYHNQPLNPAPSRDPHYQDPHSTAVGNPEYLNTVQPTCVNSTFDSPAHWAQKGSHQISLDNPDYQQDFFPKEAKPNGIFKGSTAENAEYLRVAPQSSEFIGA
# [3] = target: Epidermal growth factor receptor (Homo sapiens, UniProt P00533); test: Inhibition of recombinant human GST-tagged EGFR (668 to 1210 residues) expressed in baculovirus expression system using Tyr 04 as substrate incubated for 1 hr by Z'-LYTE assay
# Sequence of Epidermal growth factor receptor (Homo sapiens, UniProt P00533) (P00533 whole entry, the tested form may be a part): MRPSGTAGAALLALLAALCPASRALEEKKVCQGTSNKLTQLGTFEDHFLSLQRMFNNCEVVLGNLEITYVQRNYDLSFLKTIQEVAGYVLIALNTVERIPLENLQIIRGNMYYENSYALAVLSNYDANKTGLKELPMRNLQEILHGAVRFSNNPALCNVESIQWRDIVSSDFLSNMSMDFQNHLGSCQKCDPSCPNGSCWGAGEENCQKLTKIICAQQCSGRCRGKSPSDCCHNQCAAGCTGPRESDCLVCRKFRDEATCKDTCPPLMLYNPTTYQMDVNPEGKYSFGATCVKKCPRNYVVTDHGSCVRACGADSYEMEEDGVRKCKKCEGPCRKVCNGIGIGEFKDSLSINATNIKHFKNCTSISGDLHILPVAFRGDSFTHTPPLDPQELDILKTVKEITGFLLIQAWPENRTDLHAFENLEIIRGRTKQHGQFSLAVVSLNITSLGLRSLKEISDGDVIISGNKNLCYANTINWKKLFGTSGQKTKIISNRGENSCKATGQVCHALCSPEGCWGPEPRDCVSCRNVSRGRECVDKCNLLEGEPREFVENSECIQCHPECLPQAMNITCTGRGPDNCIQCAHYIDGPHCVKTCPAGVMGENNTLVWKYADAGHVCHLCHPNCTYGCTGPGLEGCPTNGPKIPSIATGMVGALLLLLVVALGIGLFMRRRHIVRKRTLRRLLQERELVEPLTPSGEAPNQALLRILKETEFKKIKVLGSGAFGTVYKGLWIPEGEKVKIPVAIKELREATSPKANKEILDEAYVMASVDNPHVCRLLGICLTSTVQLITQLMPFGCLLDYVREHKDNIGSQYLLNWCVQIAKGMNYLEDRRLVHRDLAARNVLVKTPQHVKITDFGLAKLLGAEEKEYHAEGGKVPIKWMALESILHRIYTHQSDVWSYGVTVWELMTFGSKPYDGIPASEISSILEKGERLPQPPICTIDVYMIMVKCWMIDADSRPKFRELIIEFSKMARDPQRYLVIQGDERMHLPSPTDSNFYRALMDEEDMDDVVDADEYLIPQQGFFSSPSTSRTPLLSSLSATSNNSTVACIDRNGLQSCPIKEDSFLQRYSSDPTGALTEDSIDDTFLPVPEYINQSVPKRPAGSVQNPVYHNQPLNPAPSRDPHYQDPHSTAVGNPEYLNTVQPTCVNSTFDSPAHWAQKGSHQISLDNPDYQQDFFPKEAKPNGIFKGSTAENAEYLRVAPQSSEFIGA
# [4] = test system: NCI-H1975; test: Antiproliferative activity against human NCI-H1975 cells expressing EGFR T790M/L858R mutant assessed as reduction in cell viability incubated for 72 hrs by MTT assay; format: functional, cell-based
# [5] = test system: PC-9; test: Antiproliferative activity against human PC9 cells expressing EGFR L858R mutant assessed as reduction in cell viability incubated for 72 hrs by MTT assay; format: functional, cell-based
# [6] = test system: NCI-H292; test: Antiproliferative activity against human NCI-H292 cells expressing EGFR assessed as reduction in cell viability incubated for 72 hrs by MTT assay; format: functional, cell-based
# [7] = test system: NCI-H1975; test: Antitumor activity against human NCI-H1975 cells xenografted in BALB/c mouse assessed as tumor volume at 20 mg/kg, ig for one week (reference value: 835.52 mm3); format: functional
# [8] = test system: NCI-H1975; test: Antitumor activity against human NCI-H1975 cells xenografted in BALB/c mouse assessed as tumor growth inhibition at 20 mg/kg, ig for one week; format: functional
# [9] = Toxicity in BALB/c mouse xenografted with human NCI-H1975 cells assessed as mortality at 10 to 20 mg/kg, ig for one week; format: organism-based; details: in vivo, po
# [10] = Toxicity in BALB/c mouse xenografted with human NCI-H1975 cells assessed as body weight at 20 mg/kg, ig for one week (reference value: 1.6 g); format: organism-based; details: in vivo, po
# [11] = test system: L02; test: Cytotoxicity against human LO2 cells expressing EGFR assessed as reduction in cell viability incubated for 72 hrs by MTT assay; format: cell-based; details: L02, 72 h
# [12] = test system: HK-2; test: Cytotoxicity against human HK2 cells expressing EGFR assessed as reduction in cell viability incubated for 72 hrs by MTT assay; format: cell-based; details: HK-2, 72 h
# [13] = test system: BJ; test: Cytotoxicity against human BJ cells expressing EGFR assessed as reduction in cell viability incubated for 72 hrs by MTT assay; format: cell-based
# [14] = Cytotoxicity against human HLF cells expressing EGFR assessed as reduction in cell viability incubated for 72 hrs by MTT assay; format: cell-based
# [15] = Cytotoxicity against human HEK293A cells expressing EGFR assessed as reduction in cell viability incubated for 72 hrs by MTT assay; format: cell-based, HEK293-A
# [16] = Selectivity index, ratio of IC50 for human LO2 cells to IC50 for human NCI-H1975 cells expressing EGFR T790M/L858R mutant; format: toxicity
# [17] = Selectivity index, ratio of IC50 for human HK2 cells to IC50 for human NCI-H1975 cells expressing EGFR T790M/L858R mutant
# [18] = Selectivity index, ratio of IC50 for human BJ cells to IC50 for human NCI-H1975 cells expressing EGFR T790M/L858R mutant; format: toxicity
# [19] = Selectivity index, ratio of IC50 for human HLF cells to IC50 for human NCI-H1975 cells expressing EGFR T790M/L858R mutant
# [20] = Selectivity index, ratio of IC50 for human HEK293A cells to IC50 for human NCI-H1975 cells expressing EGFR T790M/L858R mutant; format: toxicity
# [21] = test system: L02; test: Cytotoxicity against human LO2 cells assessed as change in cell morphology at 5 and 10 uM incubated for 48 hrs by microscopic analysis; format: cell-based; details: l02, 48 h
# [22] = test system: HK-2; test: Cytotoxicity against human HK2 cells assessed as change in cell morphology at 5 and 10 uM incubated for 48 hrs by microscopic analysis; format: cell-based; details: hk-2, 48 h
# [23] = Cytotoxicity against human HEK293A cells assessed as change in cell morphology at 5 and 10 uM incubated for 48 hrs by microscopic analysis; format: cell-based; details: hek293-a
# [24] = test system: NCI-H1975; test: Antitumor activity against human NCI-H1975 cells xenografted in BALB/c mouse assessed as tumor volume at 10 mg/kg, ig for one week (reference value: 835.52 mm3); format: functional
# [25] = test system: NCI-H1975; test: Antitumor activity against human NCI-H1975 cells xenografted in BALB/c mouse assessed as tumor growth inhibition at 10 mg/kg, ig for one week; format: functional
# [26] = Toxicity in BALB/c mouse xenografted with human NCI-H1975 cells assessed as body weight at 10 mg/kg, ig for one week (reference value: 1.6 g); format: organism-based; details: in vivo, po
# [27] = test system: NCI-H1975; test: Antitumor activity against human NCI-H1975 cells xenografted in ig dosed BALB/c mouse assessed as tumor growth inhibition for one week; format: functional, organism-based
# [28] = test system: NCI-H1975; test: Inhibition of cell migration in human NCI-H1975 cells at 25 nM incubated for 24 hrs by phase contrast microscopy relative to control; format: functional
# [29] = Mus musculus, NCI-H1975, po, 168 h, read-out: TGI
# Sequence of Epidermal growth factor receptor (Homo sapiens, UniProt P00533, L858R/T790M) (P00533 25-1210 T790M/L858R limits assumed): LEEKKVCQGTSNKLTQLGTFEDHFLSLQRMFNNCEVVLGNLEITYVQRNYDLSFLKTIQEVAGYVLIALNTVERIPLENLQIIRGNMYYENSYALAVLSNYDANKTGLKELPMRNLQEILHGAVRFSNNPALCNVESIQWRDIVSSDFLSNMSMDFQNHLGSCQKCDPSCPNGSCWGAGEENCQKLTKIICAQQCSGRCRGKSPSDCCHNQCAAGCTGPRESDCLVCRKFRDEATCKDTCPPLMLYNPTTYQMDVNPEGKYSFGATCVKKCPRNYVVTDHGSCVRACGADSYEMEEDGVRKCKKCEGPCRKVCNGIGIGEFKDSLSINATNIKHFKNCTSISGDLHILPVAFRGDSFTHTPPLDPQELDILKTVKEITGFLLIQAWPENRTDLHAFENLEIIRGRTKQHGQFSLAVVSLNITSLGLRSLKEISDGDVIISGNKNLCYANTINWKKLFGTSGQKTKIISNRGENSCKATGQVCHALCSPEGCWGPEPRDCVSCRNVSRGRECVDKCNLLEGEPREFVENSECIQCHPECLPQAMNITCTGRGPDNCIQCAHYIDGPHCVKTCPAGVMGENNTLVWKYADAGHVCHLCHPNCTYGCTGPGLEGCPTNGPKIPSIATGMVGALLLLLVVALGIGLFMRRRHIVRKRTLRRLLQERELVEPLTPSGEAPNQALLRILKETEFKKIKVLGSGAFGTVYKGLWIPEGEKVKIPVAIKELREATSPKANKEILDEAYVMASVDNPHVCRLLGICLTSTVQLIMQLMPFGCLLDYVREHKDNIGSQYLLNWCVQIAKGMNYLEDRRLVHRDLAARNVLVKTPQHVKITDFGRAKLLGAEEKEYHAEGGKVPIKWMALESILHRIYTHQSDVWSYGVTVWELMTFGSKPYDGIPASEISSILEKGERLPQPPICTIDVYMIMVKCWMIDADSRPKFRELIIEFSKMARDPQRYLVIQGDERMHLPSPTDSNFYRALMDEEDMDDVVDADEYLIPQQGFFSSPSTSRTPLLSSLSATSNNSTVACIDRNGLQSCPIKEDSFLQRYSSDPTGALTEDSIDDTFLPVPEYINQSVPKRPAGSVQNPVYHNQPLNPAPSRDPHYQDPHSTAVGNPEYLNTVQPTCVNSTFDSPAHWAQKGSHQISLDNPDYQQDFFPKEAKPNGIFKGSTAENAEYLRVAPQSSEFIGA
Structure (SMILES),pIC50 [1],pIC50 [2],pIC50 [3],"pIC50 ([4]; Homo sapiens, NCI-H1975, 72 h)","pIC50 ([5]; Homo sapiens, PC-9, 72 h)","pIC50 ([6]; Homo sapiens, NCI-H292, 72 h)",other results
C=CC(=O)Nc1cc(Nc2nccc(-c3cn(C)c4ccccc34)n2)c(OC)cc1N(C)CC[S+](C)[O-] (stereo not given),6.98,6.32,5.76,5.92,5.83,4.86,–
C=CC(=O)Nc1cc(Nc2nccc(-c3cn(C)c4ccccc34)n2)c(OC)cc1N(C)CCCl,6.91,6.38,5.70,6.18,5.96,4.92,–
C=CC(=O)Nc1cc(Nc2nccc(-c3cn(C)c4ccccc34)n2)c(OC)cc1N1CCS(=O)(=O)CC1,7.42,7.34,6.47,7.02,7.00,5.43,–
C=CC(=O)Nc1cc(Nc2nccc(-c3cn(C)c4ccccc34)n2)c(OC)cc1N1CC[S+]([O-])CC1,7.12,7.19,6.38,6.97,6.75,5.08,–
C=CC(=O)Nc1cc(Nc2nccc(-c3cn(C)c4ccccc34)n2)c(OC)cc1N1CCSCC1,7.19,7.10,6.28,6.40,6.51,4.71,–
C=CC(=O)Nc1cc(Nc2nccc(-c3cn(C)c4ccccc34)n2)c(OC)cc1N(C)CCO,–,–,–,6.74,6.86,5.08,–
C=CC(=O)Nc1cc(Nc2nccc(-c3cn(C)c4ccccc34)n2)c(OC)cc1N(C)CCN(C)C.O=S(=O)(O)O,–,–,–,–,–,–,Activity [7]: 18.23 mm3; TGI [8]: 98.49%; Activity [9]: Non-Toxic; Activity [10]: 1.9 g
C=CC(=O)Nc1cc(Nc2nccc(-c3cn(C)c4ccccc34)n2)c(OC)cc1N(C)CCSC,6.67,6.51,5.84,5.55,5.41,4.75,–
C=CC(=O)Nc1cc(Nc2nccc(-c3cn(C)c4ccccc34)n2)c(OC)cc1SCCN(C)C,7.96,7.85,6.48,7.31,7.36,5.98,–
C=CC(=O)Nc1cc(Nc2nccc(-c3cn(C)c4ccccc34)n2)c(OC)cc1S(=O)(=O)CCN(C)C,–,–,–,6.00,5.64,5.19,–
C=CC(=O)Nc1cc(Nc2nccc(-c3cn(C)c4ccccc34)n2)c(OC)cc1[S+]([O-])CCN(C)C (racemic),8.30,8.15,6.62,7.89,7.77,5.98,"pIC50 [11]: < 5.00; pIC50 [12]: < 5.00; pIC50 [13]: < 5.00; pIC50 ([14]; Homo sapiens, HLF, 72 h): 5.03; pIC50 ([15]; hek293-a): 5.38; selectivity ratio ([16]; read-out: Ratio IC50): > 769; Ratio IC50 [17]: >769; selectivity ratio ([18]; read-out: Ratio IC50): > 769; Ratio IC50 [19]: 715; selectivity ratio ([20]; read-out: Ratio IC50): 322; Activity [21]: Non-Toxic; Activity [22]: Non-Toxic; Activity [23]: Non-Toxic"
"C=CC(=O)Nc1cc(Nc2nccc(-c3cn(C)c4ccccc34)n2)c(OC)cc1[S+]([O-])CCN(C)C.O=S(=O)(O)O (single isomer, unassigned; (+))",–,–,–,–,–,–,Activity [24]: 141.5 mm3; Activity [7]: 117.87 mm3; TGI [25]: 81.82%; TGI [8]: 85.41%; Activity [26]: 2.1 g; Activity [10]: 2.1 g
"C=CC(=O)Nc1cc(Nc2nccc(-c3cn(C)c4ccccc34)n2)c(OC)cc1[S+]([O-])CCN(C)C (single isomer, unassigned; (+))",–,–,–,–,–,–,TGI [27]: Dose-dependent effect
"C=CC(=O)Nc1cc(Nc2nccc(-c3cn(C)c4ccccc34)n2)c(OC)cc1[S+]([O-])CCN(C)C.O=S(=O)(O)O (single isomer, unassigned; (-))",–,–,–,–,–,–,"Activity [24]: 106.81 mm3; Activity [7]: 48.23 mm3; inhibition in vivo at 10 mg/kg [25, 29]: 87.6%; inhibition in vivo at 20 mg/kg [8, 29]: 94.3%; Activity [9]: Non-Toxic; Activity [26]: 1.6 g; Activity [10]: 2.4 g"
C=CC(=O)Nc1cc(Nc2nccc(-c3cn(C)c4ccccc34)n2)c(OC)cc1[S+]([O-])CCN(C)C (stereo in doubt; (+)-4i),8.30,8.22,6.50,–,–,–,pIC50 ([4]; nci-h1975): 7.80; pIC50 ([5]; pc-9): 7.74; pIC50 ([6]; nci-h292): 5.87; pIC50 [14]: 5.01; pIC50 ([15]; hek293-a): 5.43; Ratio IC50 [16]: > 625; Ratio IC50 [17]: >625; Ratio IC50 [18]: > 625; Ratio IC50 [19]: 233; Ratio IC50 [20]: 233
C=CC(=O)Nc1cc(Nc2nccc(-c3cn(C)c4ccccc34)n2)c(OC)cc1N(C)CCN(C)C [OSIMERTINIB],–,–,–,[…],[…],5.96,"pIC50 [11]: […]; pIC50 [12]: 5.45; pIC50 [13]: < 5.00; pIC50 ([14]; Homo sapiens, HLF, 72 h): 5.06; pIC50 ([15]; Homo sapiens, HEK293-A, 72 h): 5.62; Activity [21]: Toxic; Activity [22]: Toxic; Activity [23]: Toxic; inhibition (INH) [28]: 60.54%"
